Source: patent publication US5112852A, “Allenyl amines” (Merrell Dow Pharmaceuticals Inc., priority 1989, dated 1992)

Assays:
[1] = system: hypertensive rats; test: Antihypertensive activity in vivo, conscious hypertensive rats, mean blood pressure; settings: 50 mg/kg (ip)
Description: The ability of compounds of this invention to lower blood pressure can be determined in vivo using hypertensive rats according to standard and well known procedures. The test compound is administered intraperitoneally (ip) to conscious rats and the blood pressure monitored continuously. Decreased mean blood pressure over time was observed when a compound of this invention was tested by the above described procedure, as indicated in Table II.

[2] = system: dopamine-β-hydroxylase (DBH); test: DBH inhibitory activity in vitro (time-dependent inactivation; oxygen uptake with tyramine substrate); assay type: biochemical; settings: 1 mM, pH 4.5 to 5.5, preferably pH 5.0, 20-40° C., preferably 37° C., spread +/-1.1
Description: The DBH inhibitory properties of the compounds of this invention can readily be determined by standard and well known procedures such as those procedures set forth in U.S. Pat. No. 4,415,591. […] The test compound is added at the desired concentration, and the system is incubated. At different time intervals aliquots are taken and DBH activity is measured using tyramine as the substrate. The reaction is followed by measuring oxygen uptake using a polarographic electrode and an oxygen monitor by the method of S. May, et al., J. Biol. Chem. 256, 2258 (1981).

In the case of `C=C=C(CN)c1cccs1` [β-ethenylidene-2-thiopheneethanamine, β-Ethenylidene-2-thiopheneethanamine], the “Maximum % Change in mean Blood Pressure” value ([1]; decrease per text) is reported as 15.6%, the Duration ([1]; duration of blood pressure change) is reported as 10 h and the “t 1/2 (time required for 50% inhibition)” value [2] is reported as 1.3 h.
